Data published in ChEMBL document CHEMBL1201862, “PubChem BioAssay data set” (2004).
Active and inactive are the calls of the source.

Experiments:
[1] = target: Dual specificity protein phosphatase 3 (Homo sapiens, UniProt P51452); assay: SAR VHR1 Fluorescent Assay for In Vitro dose response studies Set 3. [Related pubchem assays (depositor defined):AID1654, AID1661, AID1878]; format: functional
[2] = NIH-3T3 fibroblast cytotoxicity, dose response, cytotoxicity control, cell-based, fluorescence, Alamar Blue, secondary assay (AID 2327); format: functional;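 further: NIH-3T3 mouse fibroblasts cultured with fluconazole at 8 µg/mL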
cells [3] = format: functional, cell-based
[4] = C. albicans growth with fluconazole, confirmation, fluorescence, retest (AID 2467); format: functional, cell-based
cells [5] = format: functional, cell-based; remark: listed apart in the source
[6] = target: T1, Serine/threonine-protein phosphatase (Candida dubliniensis (strain CD36 / CBS 7987 / NCPF 3949 / NRRLY-17841) (Yeast), UniProt B9W6M3); assay: calcineurin pathway inhibitors in yeast reporter, dose response, S. cerevisiae, CDRE-lacZ, luminescence, secondary (AID 2388); format: functional, cell-based;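 further: yeast reporter cells carrying a calcineurin-responsive lacZ construct stimulated with calcium chloride; luminescent beta-galactosidase reporter signal in whole cells rather than isolated phosphatase activity; potency for inhibition where a drop in reporter signal means calcineurin blockade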
T1 sequence (B9W6M3 whole entry): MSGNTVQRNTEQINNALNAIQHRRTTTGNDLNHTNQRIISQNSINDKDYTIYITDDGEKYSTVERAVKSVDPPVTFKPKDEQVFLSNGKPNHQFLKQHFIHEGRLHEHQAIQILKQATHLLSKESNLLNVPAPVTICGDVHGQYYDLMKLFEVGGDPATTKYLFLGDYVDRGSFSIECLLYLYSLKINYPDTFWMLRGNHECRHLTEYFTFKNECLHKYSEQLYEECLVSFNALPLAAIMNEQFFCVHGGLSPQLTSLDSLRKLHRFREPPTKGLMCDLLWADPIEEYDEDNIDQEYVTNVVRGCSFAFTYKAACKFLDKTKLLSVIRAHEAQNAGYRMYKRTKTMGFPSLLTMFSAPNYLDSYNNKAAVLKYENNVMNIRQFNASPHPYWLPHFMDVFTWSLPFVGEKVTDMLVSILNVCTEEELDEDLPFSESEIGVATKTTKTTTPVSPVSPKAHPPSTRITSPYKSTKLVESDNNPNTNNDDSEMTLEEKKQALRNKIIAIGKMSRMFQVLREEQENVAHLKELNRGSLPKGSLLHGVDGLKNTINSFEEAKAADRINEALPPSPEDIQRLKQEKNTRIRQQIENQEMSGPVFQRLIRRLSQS

[7] = cytotoxicity in HEK-293T cells, dose response, cytotoxicity control for TCR NF-kB inhibitor project, luminescence, T-cell screen hits (AID 489026); format: functional, cell-based;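 further: cells exposed to compound about 14 hours before the viability readout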
HEK293 = assay: inhibitors of LMP1-driven NF-kB reporter, dose response, cell-based, HEK293, luciferase, cherry-pick (AID 588343); format: functional; details: Homo sapiens
[8] = target: Dual specificity tyrosine-phosphorylation-regulated kinase 1A (Rattus norvegicus, UniProt Q63470); format: biochemical, Homo sapiens
[9] = target: ATP-dependent molecular chaperone HSP82 (Candida albicans (strain WO-1) (Yeast), UniProt C4YTQ8); assay: loss of DOC-induced GRE-beta-galactosidase reporter signal, dose response, Hsp90 inhibitor project, S. cerevisiae, luminescence (AID 2400); format: functional, cell-based;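 further: beta-galactosidase luminescence from glucocorticoid response element reporter as proxy for Hsp90 function; inhibitor potency where signal loss means Hsp90 inhibition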
[10] = target: Photoreceptor-specific nuclear receptor (Homo sapiens, UniProt Q9Y5X4); format: functional, cell-based;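 further: CHO-S cells with Gal4-NCOR and VP16-NR2E3 two-hybrid luciferase reporter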
[11] = target: SWI/SNF-related matrix-associated actin-dependent regulator of chromatin subfamily A member 2 (Homo sapiens, UniProt P51531); assay: Luminescence-based cell-based high throughput dose response assay to identify activators of the function of SWI/SNF related, matrix associated, actin dependent regulator of chromatin, subfamily a, member 2 (SMARCA2, BRM).; format: functional
[12] = Counterscreen for activators of the function of SWI/SNF related, matrix associated, actin dependent regulator of chromatin, subfamily a, member 2 (SMARCA2, BRM): Luminescence-based cell-based high throughput dose response assay to identify non-selective compounds using the VP16 reporter assay.; format: functional
Nonstructural protein 1 = Nonstructural protein 1 (Influenza A virus, UniProt Q194T2); format: functional, Influenza A virus (A/California/07/2009(H1N1))
Cytochrome P450 2C19 = Cytochrome P450 2C19 (Homo sapiens, UniProt P33261); assay: Cytochrome panel assay with activity outcomes. Panel member name: p450-cyp2c19 Compounds with AC50 equal or less than 10 uM are considered active; format: functional; details: read-out: AC50
[13] = target: T2, Replicative DNA helicase DnaB (Mycobacterium tuberculosis, UniProt P9WMR3); assay: DnaB intein splicing inhibitors, dose response, biochemical, cell-free fluorescence (AID 449749); format: functional
T2 sequence (P9WMR3 whole entry): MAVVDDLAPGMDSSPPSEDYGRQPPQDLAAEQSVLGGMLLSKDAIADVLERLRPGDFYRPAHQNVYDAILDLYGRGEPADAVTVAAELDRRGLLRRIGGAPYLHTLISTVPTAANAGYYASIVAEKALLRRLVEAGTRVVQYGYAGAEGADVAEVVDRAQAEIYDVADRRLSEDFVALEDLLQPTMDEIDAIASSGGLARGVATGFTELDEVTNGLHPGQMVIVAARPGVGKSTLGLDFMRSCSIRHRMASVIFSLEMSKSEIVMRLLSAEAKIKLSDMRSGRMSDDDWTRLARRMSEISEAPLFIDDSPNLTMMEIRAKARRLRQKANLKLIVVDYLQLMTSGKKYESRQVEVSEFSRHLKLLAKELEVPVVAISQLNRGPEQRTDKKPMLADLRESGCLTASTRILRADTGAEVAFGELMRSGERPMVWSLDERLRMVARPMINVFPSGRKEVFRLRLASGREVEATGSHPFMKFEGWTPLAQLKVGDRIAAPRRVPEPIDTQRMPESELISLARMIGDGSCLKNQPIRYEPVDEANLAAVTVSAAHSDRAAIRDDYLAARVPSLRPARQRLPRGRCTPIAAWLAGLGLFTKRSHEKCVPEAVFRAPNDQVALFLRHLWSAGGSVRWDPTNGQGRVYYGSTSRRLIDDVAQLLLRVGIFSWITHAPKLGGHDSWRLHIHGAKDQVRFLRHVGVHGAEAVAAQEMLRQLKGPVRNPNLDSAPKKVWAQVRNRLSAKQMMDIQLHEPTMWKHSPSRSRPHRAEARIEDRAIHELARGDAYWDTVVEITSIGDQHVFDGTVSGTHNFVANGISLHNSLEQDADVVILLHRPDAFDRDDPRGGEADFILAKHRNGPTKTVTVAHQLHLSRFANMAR

Protein RecA = target: T3, Protein RecA (Mycobacterium tuberculosis, UniProt P9WHJ3); assay: Fluorescence Cell-Free Homogeneous Dose Retest to Identify Inhibitors of RecA-Intein Splicing Activity. [Related pubchem assays (depositor defined):AID2097, AID2223, AID489010, AID492950]; format: functional
T3 sequence (P9WHJ3 whole entry): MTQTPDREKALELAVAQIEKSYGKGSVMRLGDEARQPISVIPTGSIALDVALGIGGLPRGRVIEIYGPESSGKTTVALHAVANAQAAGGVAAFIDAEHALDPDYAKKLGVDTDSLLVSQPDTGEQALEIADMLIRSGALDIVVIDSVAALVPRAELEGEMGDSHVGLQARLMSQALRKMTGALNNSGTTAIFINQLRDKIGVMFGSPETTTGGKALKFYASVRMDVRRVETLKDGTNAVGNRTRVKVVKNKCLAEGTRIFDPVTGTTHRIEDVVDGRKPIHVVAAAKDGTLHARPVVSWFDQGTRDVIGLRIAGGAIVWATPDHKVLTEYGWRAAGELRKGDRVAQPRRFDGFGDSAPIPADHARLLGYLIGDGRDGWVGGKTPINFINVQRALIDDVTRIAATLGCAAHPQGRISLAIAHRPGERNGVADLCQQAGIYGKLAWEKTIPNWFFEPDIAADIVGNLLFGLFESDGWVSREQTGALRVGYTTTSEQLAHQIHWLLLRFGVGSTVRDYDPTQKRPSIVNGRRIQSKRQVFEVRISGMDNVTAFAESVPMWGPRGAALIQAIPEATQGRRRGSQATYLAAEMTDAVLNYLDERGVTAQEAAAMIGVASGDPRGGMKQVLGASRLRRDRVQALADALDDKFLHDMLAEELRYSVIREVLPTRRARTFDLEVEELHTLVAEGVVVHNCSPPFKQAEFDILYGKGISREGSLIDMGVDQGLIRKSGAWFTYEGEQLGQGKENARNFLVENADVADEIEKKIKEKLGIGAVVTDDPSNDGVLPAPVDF

MDCK = assay: antiviral activity against H1N1 influenza, dose response, cell-based, strain KY136 (AID 540257); format: functional; details: Canis lupus familiaris
Cytochrome P450 1A2 = target: T4, Cytochrome P450 1A2 (Homo sapiens, UniProt P05177);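 further: PubChem cytochrome P450 panel assay, CYP1A2 panel member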
T4 sequence (P05177 whole entry): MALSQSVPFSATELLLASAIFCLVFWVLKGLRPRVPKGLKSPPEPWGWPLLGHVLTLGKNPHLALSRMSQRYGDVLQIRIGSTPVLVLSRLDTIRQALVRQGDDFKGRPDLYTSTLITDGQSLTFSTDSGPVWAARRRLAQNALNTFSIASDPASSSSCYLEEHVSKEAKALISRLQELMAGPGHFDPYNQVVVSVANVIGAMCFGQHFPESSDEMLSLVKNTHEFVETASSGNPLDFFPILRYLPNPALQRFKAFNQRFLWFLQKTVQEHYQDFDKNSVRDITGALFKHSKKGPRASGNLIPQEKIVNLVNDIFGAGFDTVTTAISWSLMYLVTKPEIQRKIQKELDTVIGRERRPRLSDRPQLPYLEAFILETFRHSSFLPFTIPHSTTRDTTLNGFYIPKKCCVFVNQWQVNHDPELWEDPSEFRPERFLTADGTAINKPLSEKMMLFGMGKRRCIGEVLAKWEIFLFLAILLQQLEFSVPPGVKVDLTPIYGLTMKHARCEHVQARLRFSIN

Cytochrome P450 2C9 = Cytochrome P450 2C9 (Homo sapiens, UniProt P11712)
[14] = target: T5, Short transient receptor potential channel 4 (Mus musculus, UniProt Q9QUQ5); assay: mouse TRPC4 channel activators, dose response, cell-based, HEK293 TRPC4/mu-opioid, Fluo-4 calcium (AID 434937); format: functional
T5 sequence (Q9QUQ5 whole entry): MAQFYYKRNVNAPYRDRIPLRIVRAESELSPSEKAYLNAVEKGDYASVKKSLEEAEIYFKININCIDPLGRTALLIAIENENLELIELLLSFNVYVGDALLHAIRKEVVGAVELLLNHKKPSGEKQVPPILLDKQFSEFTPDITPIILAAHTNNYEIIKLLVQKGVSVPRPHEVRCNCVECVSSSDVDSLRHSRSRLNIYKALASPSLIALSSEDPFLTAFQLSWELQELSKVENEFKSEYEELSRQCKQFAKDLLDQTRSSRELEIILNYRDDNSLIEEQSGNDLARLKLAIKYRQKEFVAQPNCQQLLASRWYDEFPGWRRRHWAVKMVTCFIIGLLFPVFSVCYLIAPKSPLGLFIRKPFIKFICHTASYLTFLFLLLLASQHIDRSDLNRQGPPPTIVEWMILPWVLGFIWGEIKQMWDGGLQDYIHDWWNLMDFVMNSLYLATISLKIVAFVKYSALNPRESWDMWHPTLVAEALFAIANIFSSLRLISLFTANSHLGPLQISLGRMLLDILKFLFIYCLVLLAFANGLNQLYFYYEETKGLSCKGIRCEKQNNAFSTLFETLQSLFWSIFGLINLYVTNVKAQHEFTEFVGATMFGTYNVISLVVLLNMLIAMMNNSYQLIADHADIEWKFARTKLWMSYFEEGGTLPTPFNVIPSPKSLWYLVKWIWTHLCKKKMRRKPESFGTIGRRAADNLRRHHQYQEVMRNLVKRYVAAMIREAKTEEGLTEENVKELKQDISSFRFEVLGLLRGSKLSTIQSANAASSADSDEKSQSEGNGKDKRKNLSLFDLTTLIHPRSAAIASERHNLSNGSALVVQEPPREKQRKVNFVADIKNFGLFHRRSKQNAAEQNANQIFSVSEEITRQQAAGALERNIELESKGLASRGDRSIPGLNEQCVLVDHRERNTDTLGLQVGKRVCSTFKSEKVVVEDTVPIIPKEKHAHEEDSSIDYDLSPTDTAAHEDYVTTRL

[15] = target: Delta-type opioid receptor (Homo sapiens, UniProt P41143); assay: Counterscreen for agonists of heterodimerization of the mu 1 (OPRM1) and delta 1 (OPRD1) opioid receptors: Luminescence-based cell-based high throughput dose response assay to identify agonists of OPRD1 homodimerization. [Related pubchem assays (depositor defined):AID504326, AID504355, AID504692, AID504904, AID504905]; format: functional
Mu-type opioid receptor = Mu-type opioid receptor (Homo sapiens, UniProt P35372); assay: Counterscreen for agonists of heterodimerization of the mu 1 (OPRM1) and delta 1 (OPRD1) opioid receptors: Luminescence-based cell-based high throughput dose response assay to identify agonists of OPRM1 homodimerization.; format: functional;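 further: U2OS cells expressing OPRM1 and beta-arrestin as split beta-galactosidase partners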
[16] = target: Opioid receptors; mu & delta (Homo sapiens, UniProt P41143+P35372); assay: agonists of MOR-DOR heterodimerization, dose response, cell-based, luminescence (AID 588407); format: functional
[17] = target: 5-hydroxytryptamine receptor 5A (Homo sapiens, UniProt P47898); assay: Counterscreen for agonists of OPRM1-OPRD1 heterodimerization: luminescence-based cell-based high throughput dose response assay to identify agonists of 5-hydroxytryptamine (serotonin) 5A receptor (HTR5A). [Related pubchem assays (depositor defined):AID504326, AID504355, AID504692, AID504904, AID504905]; format: functional
Sequence of 5-hydroxytryptamine receptor 5A (P47898 whole entry): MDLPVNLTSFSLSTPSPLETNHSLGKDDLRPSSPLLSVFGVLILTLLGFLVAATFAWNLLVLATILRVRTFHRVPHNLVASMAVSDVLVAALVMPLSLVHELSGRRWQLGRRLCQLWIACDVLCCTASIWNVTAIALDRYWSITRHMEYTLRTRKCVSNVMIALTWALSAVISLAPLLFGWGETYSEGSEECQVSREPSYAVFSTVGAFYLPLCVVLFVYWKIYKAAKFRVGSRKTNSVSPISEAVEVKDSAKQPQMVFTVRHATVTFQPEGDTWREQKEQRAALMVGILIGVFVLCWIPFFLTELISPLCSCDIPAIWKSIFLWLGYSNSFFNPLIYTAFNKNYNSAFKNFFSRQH

Sequence of Delta-type opioid receptor (P41143 whole entry): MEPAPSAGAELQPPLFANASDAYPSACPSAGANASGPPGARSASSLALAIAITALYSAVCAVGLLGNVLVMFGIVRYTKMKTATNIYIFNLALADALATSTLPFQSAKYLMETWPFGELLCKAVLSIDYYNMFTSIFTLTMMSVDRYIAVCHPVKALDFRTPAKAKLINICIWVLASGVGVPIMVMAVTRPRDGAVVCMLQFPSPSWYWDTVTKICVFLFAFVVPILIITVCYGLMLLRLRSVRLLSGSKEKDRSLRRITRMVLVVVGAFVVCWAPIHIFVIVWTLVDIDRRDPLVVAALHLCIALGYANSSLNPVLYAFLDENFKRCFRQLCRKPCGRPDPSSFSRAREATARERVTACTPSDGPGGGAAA
Sequence of Photoreceptor-specific nuclear receptor (Q9Y5X4 whole entry, the tested form may be a part): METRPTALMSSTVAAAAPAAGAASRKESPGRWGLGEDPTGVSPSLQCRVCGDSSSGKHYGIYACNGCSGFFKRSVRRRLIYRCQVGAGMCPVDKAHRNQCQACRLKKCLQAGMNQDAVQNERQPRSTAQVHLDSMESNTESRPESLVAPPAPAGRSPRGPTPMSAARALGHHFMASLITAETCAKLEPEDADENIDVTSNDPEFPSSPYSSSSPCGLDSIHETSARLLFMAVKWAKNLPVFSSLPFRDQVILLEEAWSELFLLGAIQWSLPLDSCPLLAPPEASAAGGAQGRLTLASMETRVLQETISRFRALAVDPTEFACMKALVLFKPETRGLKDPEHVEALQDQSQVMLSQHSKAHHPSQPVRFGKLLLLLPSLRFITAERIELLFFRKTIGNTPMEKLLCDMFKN
Sequence of ATP-dependent molecular chaperone HSP82 (C4YTQ8 whole entry, the tested form may be a part): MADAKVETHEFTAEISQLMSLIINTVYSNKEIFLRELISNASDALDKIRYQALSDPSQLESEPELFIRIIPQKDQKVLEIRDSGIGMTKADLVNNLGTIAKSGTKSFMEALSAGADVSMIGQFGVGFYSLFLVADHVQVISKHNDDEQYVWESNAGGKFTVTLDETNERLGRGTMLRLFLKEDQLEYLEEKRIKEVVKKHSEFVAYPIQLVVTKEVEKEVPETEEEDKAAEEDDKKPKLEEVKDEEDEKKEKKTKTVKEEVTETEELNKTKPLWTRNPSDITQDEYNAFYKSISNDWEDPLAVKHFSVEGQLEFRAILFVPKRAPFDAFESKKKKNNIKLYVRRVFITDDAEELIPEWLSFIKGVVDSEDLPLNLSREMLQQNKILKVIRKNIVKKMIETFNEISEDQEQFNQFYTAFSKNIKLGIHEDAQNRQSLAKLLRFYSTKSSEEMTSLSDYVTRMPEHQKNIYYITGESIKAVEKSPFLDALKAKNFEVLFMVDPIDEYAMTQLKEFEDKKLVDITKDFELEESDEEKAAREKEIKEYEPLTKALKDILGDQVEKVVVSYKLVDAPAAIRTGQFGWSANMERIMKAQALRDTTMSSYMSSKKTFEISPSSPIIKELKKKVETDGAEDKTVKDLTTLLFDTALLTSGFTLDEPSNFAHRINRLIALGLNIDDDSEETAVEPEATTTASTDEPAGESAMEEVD
Sequence of Cytochrome P450 2C19 (P33261 whole entry): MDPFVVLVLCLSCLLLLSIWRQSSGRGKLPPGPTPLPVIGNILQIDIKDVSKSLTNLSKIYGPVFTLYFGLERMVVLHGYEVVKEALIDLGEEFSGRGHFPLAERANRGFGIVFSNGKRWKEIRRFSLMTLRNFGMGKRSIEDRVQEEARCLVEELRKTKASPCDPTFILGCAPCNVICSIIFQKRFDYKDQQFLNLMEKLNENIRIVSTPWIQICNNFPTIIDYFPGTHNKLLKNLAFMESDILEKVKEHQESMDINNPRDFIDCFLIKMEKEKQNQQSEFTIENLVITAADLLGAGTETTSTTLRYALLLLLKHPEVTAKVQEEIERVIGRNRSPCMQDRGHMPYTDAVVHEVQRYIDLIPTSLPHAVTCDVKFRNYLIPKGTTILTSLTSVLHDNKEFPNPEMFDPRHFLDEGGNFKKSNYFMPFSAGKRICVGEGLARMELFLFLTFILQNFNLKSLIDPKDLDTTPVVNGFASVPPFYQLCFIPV
Sequence of Dual specificity protein phosphatase 3 (P51452 whole entry): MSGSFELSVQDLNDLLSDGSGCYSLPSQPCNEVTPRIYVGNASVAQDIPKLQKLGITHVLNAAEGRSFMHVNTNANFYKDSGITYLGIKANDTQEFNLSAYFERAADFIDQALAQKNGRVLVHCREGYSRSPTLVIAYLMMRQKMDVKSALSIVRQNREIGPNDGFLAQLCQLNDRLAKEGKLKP
Sequence of Cytochrome P450 2C9 (P11712 whole entry): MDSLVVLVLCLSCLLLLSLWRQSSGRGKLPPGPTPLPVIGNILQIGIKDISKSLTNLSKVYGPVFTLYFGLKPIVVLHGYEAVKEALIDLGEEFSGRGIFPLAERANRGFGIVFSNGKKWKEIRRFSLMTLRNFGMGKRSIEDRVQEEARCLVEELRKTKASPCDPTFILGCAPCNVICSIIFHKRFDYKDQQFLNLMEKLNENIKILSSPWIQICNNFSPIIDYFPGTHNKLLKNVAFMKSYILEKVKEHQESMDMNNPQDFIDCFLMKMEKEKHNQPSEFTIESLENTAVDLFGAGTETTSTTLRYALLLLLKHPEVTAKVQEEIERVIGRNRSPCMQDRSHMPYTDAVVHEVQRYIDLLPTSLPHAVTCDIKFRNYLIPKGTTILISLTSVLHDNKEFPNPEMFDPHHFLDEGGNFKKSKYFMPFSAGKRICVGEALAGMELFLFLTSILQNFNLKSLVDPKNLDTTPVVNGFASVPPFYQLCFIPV
Sequence of Nonstructural protein 1 (Q194T2 whole entry): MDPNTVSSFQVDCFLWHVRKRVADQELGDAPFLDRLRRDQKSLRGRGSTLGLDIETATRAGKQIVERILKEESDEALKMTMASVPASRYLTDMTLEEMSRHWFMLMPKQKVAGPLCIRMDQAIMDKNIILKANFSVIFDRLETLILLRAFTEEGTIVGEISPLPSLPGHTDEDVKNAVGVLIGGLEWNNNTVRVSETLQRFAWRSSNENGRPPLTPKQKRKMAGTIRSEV
Sequence of SWI/SNF-related matrix-associated actin-dependent regulator of chromatin subfamily A member 2 (P51531 whole entry): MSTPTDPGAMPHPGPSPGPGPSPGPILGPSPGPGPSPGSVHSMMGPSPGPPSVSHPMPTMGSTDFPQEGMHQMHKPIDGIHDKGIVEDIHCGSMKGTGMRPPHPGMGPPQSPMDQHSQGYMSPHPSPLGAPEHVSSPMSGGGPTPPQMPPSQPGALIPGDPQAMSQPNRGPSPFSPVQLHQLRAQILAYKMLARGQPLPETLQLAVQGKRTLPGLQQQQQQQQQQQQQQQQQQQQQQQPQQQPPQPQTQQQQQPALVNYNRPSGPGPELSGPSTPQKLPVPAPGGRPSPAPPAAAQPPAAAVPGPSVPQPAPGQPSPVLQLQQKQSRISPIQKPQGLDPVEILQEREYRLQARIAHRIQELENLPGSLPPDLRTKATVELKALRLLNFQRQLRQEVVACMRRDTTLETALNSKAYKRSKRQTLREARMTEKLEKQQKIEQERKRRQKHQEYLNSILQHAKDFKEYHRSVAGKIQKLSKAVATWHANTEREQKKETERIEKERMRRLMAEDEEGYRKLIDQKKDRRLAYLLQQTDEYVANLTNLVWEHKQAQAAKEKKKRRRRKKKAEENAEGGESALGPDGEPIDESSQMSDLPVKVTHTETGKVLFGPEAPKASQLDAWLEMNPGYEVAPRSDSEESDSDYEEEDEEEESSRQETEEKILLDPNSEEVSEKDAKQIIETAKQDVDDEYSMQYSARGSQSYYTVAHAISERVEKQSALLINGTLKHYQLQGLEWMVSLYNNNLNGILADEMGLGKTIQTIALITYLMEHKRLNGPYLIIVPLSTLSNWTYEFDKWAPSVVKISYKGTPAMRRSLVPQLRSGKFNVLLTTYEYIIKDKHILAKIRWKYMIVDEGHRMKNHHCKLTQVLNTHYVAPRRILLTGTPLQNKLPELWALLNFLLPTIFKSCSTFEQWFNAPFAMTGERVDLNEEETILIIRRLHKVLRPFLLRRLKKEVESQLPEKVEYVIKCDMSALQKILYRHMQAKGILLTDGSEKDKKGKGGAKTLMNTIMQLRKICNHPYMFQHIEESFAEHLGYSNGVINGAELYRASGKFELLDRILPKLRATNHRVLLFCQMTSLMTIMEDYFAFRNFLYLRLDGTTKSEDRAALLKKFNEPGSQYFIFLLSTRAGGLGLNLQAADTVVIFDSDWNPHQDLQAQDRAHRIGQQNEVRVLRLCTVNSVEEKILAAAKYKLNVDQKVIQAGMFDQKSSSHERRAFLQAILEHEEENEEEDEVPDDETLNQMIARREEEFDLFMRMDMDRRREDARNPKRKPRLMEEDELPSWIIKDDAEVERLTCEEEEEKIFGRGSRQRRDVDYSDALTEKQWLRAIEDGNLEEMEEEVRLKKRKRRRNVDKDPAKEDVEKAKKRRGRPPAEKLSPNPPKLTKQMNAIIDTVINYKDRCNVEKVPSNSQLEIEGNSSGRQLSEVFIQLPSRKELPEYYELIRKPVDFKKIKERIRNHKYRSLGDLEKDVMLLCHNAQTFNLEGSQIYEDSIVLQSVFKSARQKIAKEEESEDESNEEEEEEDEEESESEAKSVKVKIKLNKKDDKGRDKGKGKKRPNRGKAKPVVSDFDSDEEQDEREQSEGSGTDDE

Cn1c(SCC(=O)Nc2ccc3nc(SCC(=O)c4ccc(Cl)cc4)sc3c2)nnc1-c1ccc(N)cc1
IC50 [1]: 40.6 µM (active)

COc1ccc2c(c1)/C(=C/c1cnc[nH]1)C(=O)N2 [SU-9516]
EC50 [2]: > 160 µM (inactive) | EC50 (cells [3]): > 350 µM (not active) | EC50 [4]: 0.956 µM (active) | EC50 (cells [5]): > 350 µM (not active) | EC50 [6]: > 180 µM (inactive) | IC50 [7]: 71.8 µM (inactive) | AC50 (HEK293): 34.2 µM (active) | AC50 [8]: 0.995 µM (active) | EC50 [9]: > 160 µM (inactive) | IC50 [10]: 1.19 µM (active) | EC50 [11]: > 91.2 µM (inactive) | EC50 [12]: > 91.2 µM (inactive)

CC1(C)c2ssc(=S)c2-c2ccccc2N1C(=O)CSC1=NCCS1
IC50 (Nonstructural protein 1): 27.7 µM (active) | AC50 (Cytochrome P450 2C19): 0.891 µM (inconclusive) | AC50 [13]: 5.8 µM (active) | EC50 (Protein RecA): 4.27 µM (active) | IC50 (MDCK): > 100 µM (active) | AC50 (Cytochrome P450 1A2): 2 µM (inconclusive) | AC50 (Cytochrome P450 2C9): 2.82 µM (inconclusive)

Cc1ccc(-n2cc(CNC(C)c3cnn(C)c3C)c(-c3ccc(F)cc3)n2)cc1 (stereo not given)
EC50 [14]: 0.376 µM (active) | EC50 [15]: 50 µM (inactive) | EC50 (Mu-type opioid receptor): 13 µM (inactive) | EC50 [16]: > 0.1268 µM | EC50 [17]: > 92.5 µM (inactive)
